Here are results for 24 compounds from patent US8258138B2, “Potassium channel blockers” (Xention Limited, priority 2008, dated 2012).

The target in this assay is T1, human Kv1.3 (Homo sapiens, UniProt P22001).
T1 construct: expressed in transfected cells; host or cells: stably transfected cells grown in medium for CHO cells
In words: Kv1.3 Autopatch electrophysiology (whole cell patch-clamp, inhibition of charge movement). The settings on record: compound at 1 μM, cells stably transfected with human Kv1.3, room temperature, total charge during step to +30 mV relative to control; for inhibition at 1 µM: read-out: hKv1.3 % inh. It counts as cell-based. Here is the method: Kv1.3 Autopatch Electrophysiology Method
Compounds were tested on these cells using the AutoPatch technology in whole cell mode.
The external bathing solution contained (in mM): 150 NaCl, 10 KCl, 1 MgCl2, 3 CaCl2, 10 HEPES, pH 7.4 with NaOH. Patch pipettes were filled with an electrode solution of composition (in mM): 100 K-Gluconate, 20 KCl, 1 MgCl2, 1 CaCl2, 10 HEPES, 11 EGTA, 5 ATP-Na2, 2 Glutathione pH 7.2 with KOH.
Compounds were dissolved in DMSO (100%) and made up in the external bather at a concentration of 1 μM immediately prior to use. All experiments were conducted at room temperature.
A cell suspension (10 ml), with a density of 6×10^6 cells, was aliquoted into a 15 ml centrifuge tube and stored at 4° C. before use. Prior to use a tube was taken and centrifuged at 1000 rpm for 4 mins at room temperature. The supernatant was then discarded, leaving a cell pellet at the bottom of the tube. The pellet was then resuspended using 1 ml of cold (4° C.), filtered (0.22 μm), 0.05% BSA/bather solution (0.05 g BSA/100 ml bather). The bottom of the tube was manually agitated followed by gentle tituration. The cell suspension was then placed in the AutoPatch™ temperature controlled cell-hotel at 14° C. and regularly titurated.
A length of Teflon capillary tubing was dipped into the cell suspension solution, and a column of fluid was taken up by negative pressure. The column of fluid was in electrically connectivity with a Ag/AgCl reference electrode. Borosilicate glass patch pipettes (from 1.5 mm OD, thin-walled filamented, GC150-TF capillary glass, Harvard) were pulled using a DMZ pipette puller (Zeitz Instruments), and were back-filled using the internal pipette solution, being careful that no bubbles remained at the tip or in the body of the pipette. Patch pipettes typically had resistances of 2.5-3.5 MΩ. Once filled, the pipette tip and a proportion of the shaft (˜15 mm) were dipped into Sigmacote (Sigma). The recording pipettes were placed in a multiwell array and mounted on the AutoPatch™ machine. Automated patch-clamping and drug-application was initiated by the operator, but thereafter AutoPatch.exe continued the experiment providing that pre-set conditions and criteria were satisfied.
Whole cell patch-clamp recordings were made using the AutoPatch™ rig, which incorporated an EPC9 or EPC10 amplifier (HEKA, Germany) under control of Pulse software (v8.54 or v8.76, HEKA, Germany), a cell applicator, automated drug application system (DAS), valve controller (VF1) and a suction device all at room temperature. This equipment was completely under the control of AutoPatch.exe and operator intervention was only made when there was a requirement to refill the bather reservoirs or to prevent the loss of a cell due to a technical error.
Cells were continuously perfused with external solution at a flow rate of ˜2 ml/minute.
Electrophysiology voltage-step protocols and analysis of data was performed as follows. Data were sampled at 5 kHz, and filtered with a −3 dB bandwidth of 2.5 kHz. Cells were held at a voltage of −80 mV. Currents were evoked by a voltage step to +30 mV for 500 ms in duration applied every 15 s. Online analysis of the hKv1.3 current during the application of compounds was performed by the Pulse (v8.54 or v8.76, HEKA, Germany), Excel (Microsoft, USA) and AutoPatch™ software, with the total charge measured during the whole of voltage step. Inhibition of charge movement in the presence of drug was calculated relative to control.
On the technique in general: In patch-clamp work, channel activity is measured electrically.

T1 sequence (P22001 whole entry): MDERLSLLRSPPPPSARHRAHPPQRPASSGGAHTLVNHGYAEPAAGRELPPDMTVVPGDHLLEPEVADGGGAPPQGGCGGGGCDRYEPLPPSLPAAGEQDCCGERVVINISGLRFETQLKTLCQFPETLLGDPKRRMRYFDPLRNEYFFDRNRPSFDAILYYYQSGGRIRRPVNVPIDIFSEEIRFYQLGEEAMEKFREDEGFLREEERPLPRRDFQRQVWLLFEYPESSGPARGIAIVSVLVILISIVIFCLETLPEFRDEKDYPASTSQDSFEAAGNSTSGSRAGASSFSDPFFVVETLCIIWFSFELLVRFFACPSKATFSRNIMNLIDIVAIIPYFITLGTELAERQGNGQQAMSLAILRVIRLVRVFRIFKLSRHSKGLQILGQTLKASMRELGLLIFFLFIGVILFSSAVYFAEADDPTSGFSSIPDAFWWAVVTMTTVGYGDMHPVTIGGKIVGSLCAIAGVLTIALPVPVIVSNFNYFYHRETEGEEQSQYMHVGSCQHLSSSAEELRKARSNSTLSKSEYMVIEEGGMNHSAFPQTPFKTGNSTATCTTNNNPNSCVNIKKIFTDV

Turning to `Cc1noc(C2CCCN(C(=O)c3ccc(N(Cc4ccc(Cl)cc4)S(=O)(=O)c4cn(C)cn4)cc3)C2)n1` (stereo not drawn) [Example 60, 1-Methyl-1H-imidazole-4-sulfonic acid (4-chloro-benzyl)-{4-[3-(3-methyl-[1,2,4]oxadiazol-5-yl)-piperidine-1-carbonyl]-phenyl}-amide], the inhibition at 1 µM came to 83%.

For the compound `O=C(c1ccc(N(Cc2ccccc2)S(=O)(=O)c2ccco2)cc1)N1CCN(c2ccccc2)CC1` [Example 41, Furan-2-sulfonic acid benzyl-[4-(4-phenyl-piperazine-1-carbonyl)-phenyl]-amide], the inhibition at 1 µM was determined as 81%.

As to `N#Cc1ccc(S(=O)(=O)N(Cc2ccccc2)c2ccc(C(=O)N3CCN(c4ccccc4)CC3)cc2)cc1` [Example 22, N-Benzyl-4-cyano-N-[4-(4-phenyl-piperazine-1-carbonyl)-phenyl]-benzenesulfonamide], the inhibition at 1 µM was 39%.

Consider `Cn1cnc(S(=O)(=O)N(Cc2ccccc2)c2ccc(C(=O)N3CCN(c4ccccc4F)CC3)cc2)c1` [Example 75, 1-Methyl-1H-imidazole-4-sulfonic acid benzyl-{4-[4-(2-fluoro-phenyl)-piperazine-1-carbonyl]-phenyl}-amide], for which the inhibition at 1 µM worked out at 64%.

Compound “1-Methyl-1H-imidazole-4-sulfonic acid benzyl-[4-(3-phenyl-piperidine-1-carbonyl)-phenyl]-amide [Example 64]” displayed a hKv1.3 % inh. of 86%.

Turning to `CC1CCN(C(=O)c2ccc(N(Cc3ccc(Cl)cc3)S(=O)(=O)c3cn(C)cn3)cc2)C1` (stereo not drawn) [Example 99, 1-Methyl-1H-imidazole-4-sulfonic acid (4-chloro-benzyl)-[4-(3-methyl-pyrrolidine-1-carbonyl)-phenyl]-amide], the inhibition at 1 µM came to 52%.

Regarding `CN(C)S(=O)(=O)N(Cc1ccccc1)c1ccc(C(=O)N2CCN(c3ccccc3C#N)CC2)cc1` [Example 5, N-Benzyl-N′N′-dimethyl-N-{4-[4-(2-cyano-phenyl)-piperazine-1-carbonyl]-phenyl}-sulfamide], the hKv1.3 % inh. came out at 42%.

Regarding `Cn1cnc(S(=O)(=O)N(Cc2ccccc2)c2ccc(C(=O)N3CCN(C(=O)OC(C)(C)C)C(c4ccccc4)C3)cc2)c1` (stereo not drawn) [Example 81, 4-{4-[Benzyl-(1-methyl-1H-imidazole-4-sulfonyl)-amino]-benzoyl}-2-phenyl-piperazine-1-carboxylic acid tert-butyl ester], the inhibition at 1 µM came to 57%.

As for `Cc1ccc(CN(c2ccc(C(=O)N3CCCC(C)C3)cc2)S(=O)(=O)c2cn(C)cn2)cc1` (stereo not drawn) [Example 95, 1-Methyl-1H-imidazole-4-sulfonic acid (4-methyl-benzyl)-[4-(3-methyl-piperidine-1-carbonyl)-phenyl]-amide], the inhibition at 1 µM was 51%.

With `CC1CCCN1C(=O)c1ccc(N(Cc2ccc(Cl)cc2)S(=O)(=O)c2cn(C)cn2)cc1` (stereo not drawn) [Example 98, 1-Methyl-1H-imidazole-4-sulfonic acid (4-chloro-benzyl)-[4-(2-methyl-pyrrolidine-1-carbonyl)-phenyl]-amide], the inhibition at 1 µM amounted to 51%.

Consider `Cc1cccc(S(=O)(=O)N(Cc2ccccc2)c2ccc(C(=O)N3CCN(c4ccccc4)CC3)cc2)c1` [Example 27, N-Benzyl-3-methyl-N-[4-(4-phenyl-piperazine-1-carbonyl)-phenyl]-benzenesulfonamide], for which the inhibition at 1 µM was found to be 55%.

Consider `Cc1ncc(S(=O)(=O)N(Cc2ccccc2)c2ccc(C(=O)N3CCN(c4ccccc4)CC3)cc2)n1C` [Example 47, 2,3-Dimethyl-3H-imidazole-4-sulfonic acid benzyl-[4-(4-phenyl-piperazine-1-carbonyl)-phenyl]-amide], for which the inhibition at 1 µM came to 50%.

Take `CN1CCN(C(=O)c2ccc(N(Cc3ccccc3)S(=O)(=O)c3cn(C)cn3)cc2)CC1c1ccccc1` (stereo not drawn) [Example 83, 1-Methyl-1H-imidazole-4-sulfonic acid benzyl-[4-(4-methyl-3-phenyl-piperazine-1-carbonyl)-phenyl]-amide]: the inhibition at 1 µM came to 64%.

With `Cc1noc(C2CCCN(C(=O)c3ccc(N(Cc4ccccc4)S(=O)(=O)c4cn(C)cn4)cc3)C2)n1` (stereo not drawn) [Example 65, 1-Methyl-1H-imidazole-4-sulfonic acid benzyl-{4-[3-(3-methyl-[1,2,4]oxadiazol-5-yl)-piperidine-1-carbonyl]-phenyl}-amide], the inhibition at 1 µM is 57%.

As for `Cn1cnc(S(=O)(=O)N(Cc2ccccc2)c2ccc(C(=O)N3CCC(c4ccc(F)cc4)C3)cc2)c1` (stereo not drawn) [Example 82, 1-Methyl-1H-imidazole-4-sulfonic acid benzyl-{4-[3-(4-fluoro-phenyl)-pyrrolidine-1-carbonyl]-phenyl}-amide], the inhibition at 1 µM worked out at 78%.

Compound `CN(C)S(=O)(=O)N(Cc1ccccc1)c1ccc(C(=O)N2CCC(OCc3ccccc3)C2)cc1` (stereo not drawn) [Example 70, N-Benzyl-N′N′-dimethyl-N-[4-(3-benzyloxy-pyrrolidine-1-carbonyl)-phenyl]-sulfamide] gave a hKv1.3 % inh. of 26%.

For `Cn1cnc(S(=O)(=O)N(Cc2ccc(Cl)c(Cl)c2)c2ccc(C(=O)N3CCCCC3)cc2)c1` [Example 96, 1-Methyl-1H-imidazole-4-sulfonic acid (3,4-dichloro-benzyl)-[4-(piperidine-1-carbonyl)-phenyl]-amide], the inhibition at 1 µM came to 48%.

Turning to `Cc1ccccc1CN(c1ccc(C(=O)N2CCN(c3ccccc3)CC2)cc1)S(=O)(=O)c1ccccc1` [Example 34, N-(2-Methyl-benzyl)-N-[4-(4-phenyl-piperazine-1-carbonyl)-phenyl]-benzenesulfonamide], the inhibition at 1 µM stood at 85%.

Consider `Cn1cnc(S(=O)(=O)N(Cc2ccc(Cl)cc2)c2ccc(C(=O)N3CCC(F)(F)C3)cc2)c1` [Example 100, 1-Methyl-1H-imidazole-4-sulfonic acid (4-chloro-benzyl)-[4-(3,3-difluoro-pyrrolidine-1-carbonyl)-phenyl]-amide], for which the inhibition at 1 µM came out at 52%.

`CN1CCN(C(=O)c2ccc(N(Cc3ccccc3)S(=O)(=O)c3ccnn3C)cc2)CC1c1ccccc1` (stereo not drawn) [Example 91, 2-Methyl-2H-pyrazole-3-sulfonic acid benzyl-[4-(4-methyl-3-phenyl-piperazine-1-carbonyl)-phenyl]-amide]: the inhibition at 1 µM is 81%.

As for `Cn1ccc(S(=O)(=O)N(Cc2ccc(Cl)cc2)c2ccc(C(=O)N3CCCCC3)cc2)n1` [Example 86, 1-Methyl-1H-pyrazole-3-sulfonic acid (4-chloro-benzyl)-[4-(piperidine-1-carbonyl)-phenyl]-amide], the inhibition at 1 µM turned out to be 88%.

With `Cn1cnc(S(=O)(=O)N(Cc2ccc(Cl)cc2)c2ccc(C(=O)N3CCCCC3)cc2)c1` [Example 67, 1-Methyl-1H-imidazole-4-sulfonic acid (4-chloro-benzyl)-[4-(piperidine-1-carbonyl)-phenyl]-amide], the inhibition at 1 µM worked out at 43%.

`CN(C)S(=O)(=O)N(Cc1ccccc1)c1ccc(C(=O)N2CCC(Oc3ccccc3)CC2)cc1` [Example 72, N-Benzyl-N′N′-dimethyl-N-[4-(4-phenoxy-piperidine-1-carbonyl)-phenyl]-sulfamide] returned a hKv1.3 % inh. of 68%.

`Cn1cnc(S(=O)(=O)N(Cc2ccccc2)c2ccc(C(=O)N3CCN(CC4CCCCC4)CC3)cc2)c1` [Example 76, 1-Methyl-1H-imidazole-4-sulfonic acid benzyl-[4-(4-cyclohexylmethyl-piperazine-1-carbonyl)-phenyl]-amide]: the inhibition at 1 µM was 45%.
